According to publication PMC9501810, “Bitter Peptides YFYPEL, [sequence], and [sequence], Released during Gastric Digestion of Casein, Stimulate Mechanisms of Gastric Acid Secretion via Bitter Taste Receptors TAS2R16 and TAS2R38” (Journal of Agricultural and Food Chemistry, 2022):
Where “and” joins values, the source holds several entries; their conditions need not be identical. Equal values may be shown once.

Columns and labels:
Type in all cases: cell-based, human
Settings in all cases: VAPFPEVF 17.5 µM, YFYPEL 0.03 µM, YQEPVLGPVRGPFPIIV 0.4 µM, normalized to PPIA and GAPDH and untreated cells, mean, n = 3–5
TAS2R42 = experiment: RT-qPCR gene expression of TAS2R42 in HGT-1 cells
Procedure: (§1) For mRNA expression analysis, 800,000 cells were seeded in a T25 cell culture flask (25 cm^2) 1 day before the experiment. After incubation with 17.5 μM […], 0.03 μM YFYPEL, or 0.4 μM […] for 15, 30, 60, and 120 min, RNA was isolated using the peqGOLD RNA Kit (VWR Peqlab, USA) following the manufacturer’s protocol. Determination of RNA concentration (A260/A280 between 2.03 and 2.09) was performed on a NanoDrop One^c (Thermo Fisher Scientific Inc., USA). RNA integrity number (RIN 9.9–10.0, version 2.6, assay class Eukaryote Total RNA Nano) was analyzed using a 2100 Bioanalyzer (Agilent Technologies, USA). Removal of gDNA and synthesis of cDNA were performed using the iScript gDNA Clear cDNA Synthesis Kit (BioRad, Feldkirchen, Germany) following the manufacturer’s protocol. Real-time-qPCR (RT-qPCR) was performed with 50 ng cDNA amplified with SsoAdvanced Universal SYBR Green Supermix (Bio-Rad Laboratories, Inc., USA). The sequences of the forward and reverse primers of the 25 TAS2Rs were taken from Liszt et al.([13]) (Supporting Information Table-SI 3). Verified primers for the TAS1Rs (TAS1R1: qHsaCID0013443; TAS1R2: qHsaCID0016106; TAS1R3: qHsaCED0002321) and for MAPK1 (qHsaCEP0050000) were obtained from Bio-Rad Laboratories. PPIA[37] and GAPDH[38] were used as reference genes. The effects of the peptides on gene expression were analyzed in comparison to untreated control cells.

TAS2R39 = experiment: RT-qPCR gene expression of TAS2R39 in HGT-1 cells
Procedure: as §1

TAS2R45 = experiment: RT-qPCR gene expression of TAS2R45 in HGT-1 cells
Procedure: as §1

TAS2R9 = experiment: RT-qPCR gene expression of TAS2R9 in HGT-1 cells
Procedure: as §1

TAS2R38 = experiment: RT-qPCR gene expression of TAS2R38 in HGT-1 cells
Procedure: as §1, with “cells. […]” for “cells.”

TAS2R14 = experiment: RT-qPCR gene expression of TAS2R14 in HGT-1 cells
Procedure: as §1

TAS2R4 = experiment: RT-qPCR gene expression of TAS2R4 in HGT-1 cells
Procedure: as §1

TAS2R10 = experiment: RT-qPCR gene expression of TAS2R10 in HGT-1 cells
Procedure: as §1

TAS2R1 = experiment: RT-qPCR gene expression of TAS2R1 in HGT-1 cells
Procedure: as §1

Which “change in gene expression of TAS2R42” value (TAS2R42; incubation 15 min) does the source give for “VAPFPEVF [bitter casein peptide αS1-CN25–32]” here?
Its value is 0.52 fold change.

And the “change in gene expression of TAS2R42” value (TAS2R42; incubation 30 min)?
Its value is 0.88 fold change.

What about the “change in gene expression of TAS2R42” value (TAS2R42; incubation 60 min) of the same substance?
Its value is 0.71 fold change.

What about the “change in gene expression of TAS2R42” value (TAS2R42; incubation 120 min) of the same substance?
The value was 1.20 fold change.

What about the “change in gene expression of TAS2R39” value (TAS2R39; incubation 15 min) of the same substance?
Its value is 0.39 fold change.

And the “change in gene expression of TAS2R39” value (TAS2R39; incubation 30 min)?
Its value is 1.37 fold change.

And the “change in gene expression of TAS2R39” value (TAS2R39; incubation 60 min)?
Its value is 0.55 fold change.

And the “change in gene expression of TAS2R39” value (TAS2R39; incubation 120 min)?
The value was 1.16 fold change.

And the “change in gene expression of TAS2R45” value (TAS2R45; incubation 15 min)?
The value was 0.52 fold change.

What about the “change in gene expression of TAS2R45” value (TAS2R45; incubation 30 min) of the same substance?
Its value is 1.08 fold change.

And the “change in gene expression of TAS2R45” value (TAS2R45; incubation 60 min)?
Its value is 0.68 fold change.

What about the “change in gene expression of TAS2R45” value (TAS2R45; incubation 120 min) of the same substance?
The value was 1.17 fold change.

And the “change in gene expression of TAS2R9” value (TAS2R9; incubation 15 min)?
Its value is 1.73 fold change.

What about the “change in gene expression of TAS2R9” value (TAS2R9; incubation 30 min) of the same substance?
The value was 1.08 fold change.

What about the “change in gene expression of TAS2R9” value (TAS2R9; incubation 60 min) of the same substance?
The value was 2.31 fold change.

And the “change in gene expression of TAS2R9” value (TAS2R9; incubation 120 min)?
The value was 0.99 fold change.

What about the “change in gene expression of TAS2R38” value (TAS2R38; incubation 15 min) of the same substance?
The value was 1.31 fold change.

What about the “change in gene expression of TAS2R38” value (TAS2R38; incubation 30 min) of the same substance?
Its value is 2.42 fold change and 2.42 ± 0.55 fold change.

And the “change in gene expression of TAS2R38” value (TAS2R38; incubation 60 min)?
The value was 1.15 fold change.

What about the “change in gene expression of TAS2R38” value (TAS2R38; incubation 120 min) of the same substance?
Its value is 2.45 fold change and 2.45 ± 0.26 fold change.

And the “change in gene expression of TAS2R14” value (TAS2R14; incubation 15 min)?
The value was 0.67 fold change.

What about the “change in gene expression of TAS2R14” value (TAS2R14; incubation 30 min) of the same substance?
Its value is 0.97 fold change.

And the “change in gene expression of TAS2R14” value (TAS2R14; incubation 60 min)?
The value was 0.86 fold change.

And the “change in gene expression of TAS2R14” value (TAS2R14; incubation 120 min)?
Its value is 1.08 fold change.

What about the “change in gene expression of TAS2R4” value (TAS2R4; incubation 15 min) of the same substance?
The value was 0.50 fold change.

What about the “change in gene expression of TAS2R4” value (TAS2R4; incubation 30 min) of the same substance?
The value was 1.14 fold change.

And the “change in gene expression of TAS2R4” value (TAS2R4; incubation 60 min)?
The value was 0.95 fold change.

And the “change in gene expression of TAS2R4” value (TAS2R4; incubation 120 min)?
The value was 1.42 fold change.

What about the “change in gene expression of TAS2R10” value (TAS2R10; incubation 15 min) of the same substance?
Its value is 0.34 fold change and 0.34 ± 0.05 fold change.

What about the “change in gene expression of TAS2R10” value (TAS2R10; incubation 30 min) of the same substance?
The value was 0.76 fold change.

And the “change in gene expression of TAS2R10” value (TAS2R10; incubation 60 min)?
The value was 0.91 fold change.

What about the “change in gene expression of TAS2R10” value (TAS2R10; incubation 120 min) of the same substance?
Its value is 1.15 fold change.

And the “change in gene expression of TAS2R1” value (TAS2R1; incubation 15 min)?
The value was 0.79 fold change.

And the “change in gene expression of TAS2R1” value (TAS2R1; incubation 30 min)?
The value was 1.36 fold change.

And the “change in gene expression of TAS2R1” value (TAS2R1; incubation 60 min)?
The value was 0.44 fold change.

And the “change in gene expression of TAS2R1” value (TAS2R1; incubation 120 min)?
Its value is 1.62 fold change.

Which results are given for “YFYPEL [bitter casein peptide αS1-CN144–149]”?
change in gene expression of TAS2R42 (TAS2R42; incubation 15 min): 1.17 fold change; change in gene expression of TAS2R42 (TAS2R42; incubation 30 min): 0.55 fold change; change in gene expression of TAS2R42 (TAS2R42; incubation 60 min): 0.69 fold change; change in gene expression of TAS2R42 (TAS2R42; incubation 120 min): 0.93 fold change; change in gene expression of TAS2R39 (TAS2R39; incubation 15 min): 1.21 fold change; change in gene expression of TAS2R39 (TAS2R39; incubation 30 min): 0.42 fold change; change in gene expression of TAS2R39 (TAS2R39; incubation 60 min): 0.62 fold change; change in gene expression of TAS2R39 (TAS2R39; incubation 120 min): 0.45 fold change; change in gene expression of TAS2R45 (TAS2R45; incubation 15 min): 1.15 fold change; change in gene expression of TAS2R45 (TAS2R45; incubation 30 min): 0.54 fold change; change in gene expression of TAS2R45 (TAS2R45; incubation 60 min): 0.70 fold change; change in gene expression of TAS2R45 (TAS2R45; incubation 120 min): 0.94 fold change; change in gene expression of TAS2R9 (TAS2R9; incubation 15 min): 0.66 fold change; change in gene expression of TAS2R9 (TAS2R9; incubation 30 min): 2.64 fold change; change in gene expression of TAS2R9 (TAS2R9; incubation 60 min): 3.01 fold change; change in gene expression of TAS2R9 (TAS2R9; incubation 120 min): 1.41 fold change; change in gene expression of TAS2R38 (TAS2R38; incubation 15 min): 2.96 fold change; change in gene expression of TAS2R38 (TAS2R38; incubation 30 min): 3.40 fold change; change in gene expression of TAS2R38 (TAS2R38; incubation 60 min): 2.39 fold change; change in gene expression of TAS2R38 (TAS2R38; incubation 120 min): 2.91 fold change; change in gene expression of TAS2R14 (TAS2R14; incubation 15 min): 1.11 fold change; change in gene expression of TAS2R14 (TAS2R14; incubation 30 min): 0.92 fold change; change in gene expression of TAS2R14 (TAS2R14; incubation 60 min): 0.99 fold change; change in gene expression of TAS2R14 (TAS2R14; incubation 120 min): 1.21 fold change; change in gene expression of TAS2R4 (TAS2R4; incubation 15 min): 1.24 fold change; change in gene expression of TAS2R4 (TAS2R4; incubation 30 min): 0.81 fold change; change in gene expression of TAS2R4 (TAS2R4; incubation 60 min): 0.92 fold change; change in gene expression of TAS2R4 (TAS2R4; incubation 120 min): 1.13 fold change; change in gene expression of TAS2R10 (TAS2R10; incubation 15 min): 0.64 fold change; change in gene expression of TAS2R10 (TAS2R10; incubation 30 min): 0.41 fold change and 0.41 ± 0.05 fold change; change in gene expression of TAS2R10 (TAS2R10; incubation 60 min): 0.72 fold change; change in gene expression of TAS2R10 (TAS2R10; incubation 120 min): 0.90 fold change; change in gene expression of TAS2R1 (TAS2R1; incubation 15 min): 0.36 fold change; change in gene expression of TAS2R1 (TAS2R1; incubation 30 min): 1.03 fold change; change in gene expression of TAS2R1 (TAS2R1; incubation 60 min): 0.55 fold change; change in gene expression of TAS2R1 (TAS2R1; incubation 120 min): 0.73 fold change
